{"source": "paper PMC10762068", "about": "“Selective blockade of Cav1.2 (α1C) versus Cav1.3 (α1D) L-type calcium channels by the black mamba toxin calciseptine” (Nature Communications, 2024)", "key": {"Cav2.1 P/Q type": {"tested_on": "Cav2.1 P/Q type", "test": "Ca2+ current in HEK-293T cells expressing Cav2.1", "format": "cell-based", "settings": "Cas 300 nM (n=10/N=3) and 1 µM (n=10/N=3); holding -80 mV, step 0 mV", "experimental": "HEK-293T (RRID:CVCL_2737) were obtained from the European Collection of Authenticated Cell Cultures (ECACC 96121229). The identity of HEK-293T has been confirmed by STR profiling and the cells have been eradicated from mycoplasma at ECACC. We routinely tested the cells for the absence of the mycoplasma contamination. Cells were cultivated at 37 °C in DMEM supplemented with GlutaMax, 10% fetal bovine serum and 1% penicillin/streptomycin (Invitrogen, Fisher Scientific, France). […]\nMacroscopic currents in HEK-293T cells were recorded at room temperature using an Axopatch 200B or Multiclamp 700B patchclamp amplifier (Molecular Devices, Sunnyvale CA). […]\nIn all experiments of cellular electrophysiology, we employed synthetized analog of Cas, commercially available at Latoxan (ID: L8109). […] Its measured molecular mass (7036.26 Da average) was in accordance with the mass calculated from sequence data (7036.22 Da). […]\nn=10/N=3) channels. Peak current density wa s recorded starting f rom a holding potential of -80mV using an activating voltage step at -30mV for Cav3.1, f ro m a holding potential of -90mV using an activating voltage step at +20mV for Cav2.2 and f rom a holding potential of -80mV using an activating voltage step at 0mV for Cav2.1. Exam ples of recorded traces are reported. […]"}, "[1]": {"tested_on": "ICav1.2 in SAN myocytes from Cav1.3^−/− mice", "test": "ICaL, patch clamp, SAN myocytes from Cav1.3-/- mice", "format": "cell-based, mouse", "settings": "for degree of inhibition of ICav1.2 / percentage of ICaL block: step 0 mV, mean ± SEM; for degree of inhibition of ICav1.2: n=6/N=2; for percentage of ICaL block: n=7/N=2; for L-type Ca2+ current density: Cas 1 µM alone or + Nife 3 µM, n=8", "experimental": "Hearts from Wild-Type and Cav1.3^−/− mice were removed under general anesthesia consisting of 0.01 mg/g xylazine (2% Rompun; Bayer AG) and 0.1 mg/g ketamine (Imalgène;Merial) and immersed in a pre-warmed (36 °C) Tyrode solution containing (mM): 140 NaCl, 5.4 KCl, 1 MgCl2, 1.8 CaCl2, 5.5 D-glucose, and 5 Hepes (adjusted to pH 7.4 with NaOH). […] SAN tissue was excised and transferred into a low-Ca^2+ solution containing (mM): 140 NaCl, 5.4 KCl, 0.5 MgCl2, 0.2 CaCl2, 1.2 KH2PO4, 50 taurine, 5.5 D-glucose, 1 mg/mL BSA, and 5 Hepes–NaOH (adjusted to pH 6.9 with NaOH) for 5 min. Then, enzymatic digestion was carried out for 20-25 min at 36 °C in the low-Ca^2+ solution containing LiberaseTH Research Grade (0.15 mg/mL; Roche, Mannheim, Germany) and elastase (0.5 mg/mL; Worthington, Lakewood, NJ, USA). Digestion was stopped by washing the SAN in a “Kraftbrühe” (KB) medium containing (mM) 100 K-glutamate, 10 K-aspartate, 25 KCl, 10 KH2PO4, 2 MgSO4, 20 taurine, 5 creatine, 0.5 EGTA, 20 D-glucose, 5 Hepes, and 1 mg/mL BSA (adjusted to pH 7.2 with KOH). Single SAN cells were then dissociated from the SAN tissue by manual agitation using a flame-forged Pasteur’s pipette. To recover the automaticity of the SAN cells, Ca^2+ was gradually reintroduced in the cell’s storage solution to a final concentration of 1.8 mM. SAN cells were then left to rest for 1 h before recordings.\nFor patch-clamp recordings of SAN myocytes, cells were harvested in custom-made chambers with glass bottoms for cell attachment. Cells were then super-fused with Tyrode’s solution warmed at 36 °C before recording. Action potentials and ionic currents were recorded using an Axon multi-clamp patch-clamp 700B amplifier. Voltage-gated L-type Ca^2+ currents (ICaL) were recorded using standard whole cell patch-clamp configuration. For recording ICaL, we used an extracellular recording solution contained (mM): 135 tetraethylammonium chloride (TEA-Cl), 10 4-aminopyridine (4-AP), 1 MgCl2, 0.03 tetrodotoxin (TTX), 1 g/L Glucose, 2 CaCl2, 10 Hepes, (adjusted to pH = 7.2 with TEAOH). […] Pacemaker activity was recorded by the perforated patch-clamp technique using escin (40 µg/ml). For recording cell automaticity glass pipettes were filled with the intracellular solution contained (mM): 80 K-Aspartate, 50 KCl, 1 MgCl2, 5 HEPES, 2 CaCl2, 5 EGTA, 3 ATP-Na+ salt; pH was adjusted to 7.2 with KOH. Escin was dissolved in sterile H2O and added to the intracellular solution right before each experiment.\nIn all experiments of cellular electrophysiology, we employed synthetized analog of Cas, commercially available at Latoxan (ID: L8109). The native peptide was purified from the venom of Dendroaspis polylepis purchased from Latoxan, as previoulsly described. The pure peptide was obtained after gel filtration, cation exchange and C18 reversed phase chromatography. Its measured molecular mass (7036.26 Da average) was in accordance with the mass calculated from sequence data (7036.22 Da)."}}, "note": "Entries after “also recorded” stand apart in the source; their conditions may differ. Positions of bridges follow the written chain, without caps; N, C: chain ends. No end group written: not given here.", "data": [{"sequence": "RICYIHKASLPRATKTCVENTCYKMFIRTQREYISERGCGCPTAMWPYQTECCKGDRCNK (disulfide 3-22, 17-39, 41-52, 53-58 (inferred)) [Cas, calciseptine]", "values": [{"measurement": "effect on Cav2.1 current", "setting": "Cav2.1 P/Q type", "value": "failed to detect inhibitory effect; also recorded: had no effect"}, {"measurement": "degree of inhibition of ICav1.2", "setting": "[1]; Cas 300 nM, 0.2 Hz, holding −60 mV", "value": "62 ± 6", "unit": "%"}, {"measurement": "degree of inhibition of ICav1.2", "setting": "[1]; Cas 300 nM, 1 Hz, holding −60 mV", "value": "63 ± 6", "unit": "%"}, {"measurement": "degree of inhibition of ICav1.2", "setting": "[1]; Cas 300 nM, 5 Hz, holding −60 mV", "value": "58 ± 8", "unit": "%"}, {"measurement": "voltage- or use-dependence of ICav1.2 inhibition", "setting": "[1]; Cas 300 nM, holding −40 / −60 mV, 0.2, 1, 5 Hz", "value": "not voltage- or use-dependent"}, {"measurement": "percentage of ICaL block", "setting": "[1]; Cas 300 nM, holding −40 mV", "value": "68 ± 3", "unit": "%"}, {"measurement": "percentage of ICaL block", "setting": "[1]; Cas 300 nM, holding −60 mV", "value": "67 ± 4", "unit": "%"}, {"measurement": "L-type Ca2+ current density", "setting": "[1]; 0 mV, Ctrl -4.14± 0.56", "value": "-0.45± 0.14", "unit": "pA/pF"}, {"measurement": "L-type Ca2+ current density", "setting": "[1]; +10 mV, Ctrl -4.69± 0.57", "value": "-0.17± 0.14", "unit": "pA/pF"}, {"measurement": "L-type Ca2+ current density", "setting": "[1]; +20 mV, Ctrl -3.93± 0.56", "value": "-0.13± 0.21", "unit": "pA/pF"}, {"measurement": "L-type Ca2+ current density", "setting": "[1]; +40 mV, Ctrl -1.15± 0.37", "value": "0.37± 0.29", "unit": "pA/pF"}, {"measurement": "L-type Ca2+ current density", "setting": "[1]; -10 mV, Ctrl -2.49± 0.39", "value": "-0.17± 0.07", "unit": "pA/pF"}, {"measurement": "L-type Ca2+ current density", "setting": "[1]; -20 mV, Ctrl -1.16± 0.20", "value": "-0.08± 0.03", "unit": "pA/pF"}, {"measurement": "L-type Ca2+ current density", "setting": "[1]; -25 mV, Ctrl -0.97± 0.21", "value": "-0.25± 0.13", "unit": "pA/pF"}, {"measurement": "block of ICaL", "setting": "[1]; Cas 1 µM, holding −55 mV, n=8/N=2", "value": "totally blocked ICaL"}, {"measurement": "residual ICaL after Cas", "setting": "[1]; Cav1.3^−/− SAN myocytes after Cas perfusion", "value": "No residual ICaL was recorded"}]}]}
